The subject of experiment [1] is Staphylococcus aureus (Xen29-ATCC 12600) biofilm formation. The experiment can be described thus: S. aureus Xen29 biofilm formation (bioluminescence imaging, IVIS). The format is cell-based. Particulars: imaged every 60 min for 13 hours; for biofilm formation (photon signal per second, radiance): 20 μM, vs vehicle; for biofilm formation (photon signal per surface unit): 10 μM, vs vehicle DMSO 1%. As for the experimental part:
(§1) Bioluminescent S. aureus (Xen29, Perkin Elmer-(ATCC 12600)) is grown overnight in TSB medium, before being diluted 100 fold in fresh TSB, and incubated aerobically at 37° C. until bacteria culture reached an OD600 of 0.6 (corresponding to approximately 1-3×10^8 CFU/ml). Bacteria cultures are then diluted to 1×10^4 CFU/ml in fresh TSB. 600 μl aliquots of diluted bacteria suspensions are distributed in each well of a 48-well plate. Bacteria are allowed to adhere for 3 hours under static conditions at 37° C. After removing media, wells are rinsed 2 times with PBS to eliminate planktonic bacteria and re-filled with TSB supplemented with 0.5% glucose
(§2) […] Biofilm formation is imaged every 60 min, for 13 hours, using a IVIS camera system (Xenogen Corp.) Total photon emission from each well is then quantified using the Living Image software package (Xenogen Corp.).
as §1, with “suspensions were” for “suspensions are”
as §2
as §1, with “was” for “(Xen29, Perkin Elmer-(ATCC 12600)) is”, “O/N” for “overnight”, “were” for “are”, “TSB and aliquots of” for “TSB.”, “were” for “aliquots of diluted bacteria suspensions are”, “glucose. Molecules 2666 and 2511 were then added at 20 μM final concentration. Biofilm formation is imaged every 60 min, for 13 hours, using a IVIS camera system (Xenogen Corp.) Total photon emission from each well (photon/second:p/s) is then quantified using the Living Image software package (Xenogen Corp.).” for “glucose”

The test system of another experiment is MRSA. The experiment is described as follows: Minimal Bactericidal Concentration (MBC) for MRSA. In kind it is cell-based, Staphylococcus aureus. Particulars: for MBC: Staphylococcus aureus, MRSA, 99.9% of initial inoculum killed over 24 hours. As for the experimental part: We have determined the Minimal Bactericidal Concentration (MBC) of the pyrazolopyrimidine molecule 2666 for the MRSA strain and the MBC of the purine molecules 2329 and 2833 for MRSA and the MRSE strain respectively.
To determine the MBC, bacteria were grown as per MIC determination in presence of the pyrazolopyrimidine molecule 2666 for MRSA or in presence of the purine molecule 2833 for MRSE or 2329 for MRSA. At 24 hours bacteria were plated on TSB agar plates by the broth microdilution method, and colonies formed on the plates were counted next day.
The MBC represents the lowest concentration at which 99.9% bacteria of the initial inoculum are killed over 24 hours.

Experiment [2] relates to Glycopeptide intermediate-resistant (GISA) S. aureus Mu-50 (ATCC 700695). The experiment is described as follows: MIC determination on glycopeptide intermediate-resistant S. aureus. In kind it is cell-based. As to conditions: Staphylococcus aureus, ATCC700695, read-out: MIC S. aureus GISA. As for the experimental part: (§3) Further experiments are conducted using different strains of S. aureus, as clinically relevant Gram-positive bacterial strains: S. aureus ATCC 25904, methicillin-resistant S. aureus (MRSA) ATCC BAA-1556, Glycopeptide intermediate-resistant (GISA) S. aureus Mu-50 (ATCC 700695) in order to determine the Minimal Inhibitory Concentration (MIC) which is the minimal concentration required to prevent bacterial growth. The bioluminescent strain S. aureus Xen29 (ATCC 12600) was also used. This strain is derived from the parental strain S. aureus ATCC 12600, a pleural fluid isolate, which is also designated as NCTC8532.
(§4) A single colony selected from the different strains of S. aureus is resuspended and cultured in brain heart infusion (BHI) broth overnight (O/N) in aerobic conditions (37° C. with 220 rpm shaking), next day a 1:100 inoculum in Mueller-Hinton broth (MHB) is incubated in aerobic conditions for 3 hr (=OD0.08-0.1) and an inoculum of 1:300 dilution, corresponding to 3×10^5 CFU/ml, is incubated in presence or absence of different concentrations of the tested molecules in 1% DMSO. After O/N growth the OD of each culture was measured at 600 nm (OD600) in a spectrophotometer (Victor 3-Perkin Elmer). The MIC represents the concentration at which there is no visible growth of bacteria, i.e. ΔOD at 600 nm equal to zero (blank is the medium alone). […] The MIC of molecule 2329 against Glycopeptide intermediate-resistant (GISA) S. aureus Mu-50 (ATCC 700695) is in between 25 and 30 μM, while it is above 50 μM for molecules 2348, 2412, and 2452.

The subject of experiment [3] is vancomycin-resistant (VRE) E. faecalis ATCC BAA-2365. The experiment can be described thus: MIC determination on vancomycin-resistant E. faecalis. In kind it is cell-based, Enterococcus faecalis. Particulars: Mueller-Hinton broth (MHB). As for the experimental part: Further experiments were conducted using the clinically relevant Gram-positive bacterial strain of vancomycin-resistant (VRE) E. faecalis ATCC BAA-2365, in order to determine the Minimal Inhibitory Concentration (MIC) which is the minimal concentration required to prevent bacterial growth.
A single colony selected from E. faecalis VRE is resuspended and cultured in the brain heart infusion (BHI) broth overnight (O/N) in aerobic conditions (37° C. with 220 rpm shaking), next day a 1:100 inoculum in Mueller-Hinton broth (MHB) is incubated in aerobic conditions for 3 hr (OD=0.08-0.1) and an inoculum of 1:300 dilution, corresponding to 3×10^5 CFU/ml, is incubated in presence or absence of different concentrations of the tested molecules in 1% DMSO. After O/N growth the OD of each culture is measured at 600 nm (OD600) in a spectrophotometer (Victor 3-Perkin Elmer). The MIC represents the concentration at which there is no visible growth of bacteria, i.e. ΔOD at 600 nm equal to zero (blank is the medium alone).

A further experiment deals with S. aureus ATCC 25904. The experiment is described as follows: MIC determination on S. aureus ATCC 25904. In kind it is cell-based. As to conditions: Staphylococcus aureus, ATCC25904, read-out: MIC S. aureus ATCC25904. As for the experimental part: as §3, §4

In brackets after ≈: the same amount, converted by molar mass.

On to `CCSc1nc(N[C@@H]2C[C@H]2c2ccc(F)c(F)c2)c2cnn(C)c2n1.Cl` [Molecule 2666, N-((1R,2S)-2-(3,4-difluorophenyl)cyclopropyl)-6-(ethylthio)-1-methyl-1H-pyrazolo[3,4-d]pyrimidin-4-amine hydrochloride], for which, in experiment [1], the “biofilm formation (photon signal per second, radiance)” value was “inhibited biofilm growth”. Also, in the experiment with MRSA, the “MBC relative to MIC, MRSA” value is listed as “around 2 times” and the minimal bactericidal concentration (MBC) came out at 40 µM.

As to `C=CCn1cnc2c(N[C@@H]3C[C@H]3c3ccc(F)c(F)c3)nc(SCCC)nc21` [Molecule 2412, 9-allyl-N-((1R,2S)-2-(3,4-difluorophenyl)cyclopropyl)-2-(propylthio)-9H-purin-6-amine], the MIC in experiment [2] was above 50 µM; in experiment [3], above 50 µM; with S. aureus ATCC 25904 it was 20 to 25 µM (≈ 8.03 to 10 µg/mL). Also, the “biofilm formation (photon signal per surface unit)” value in experiment [1] is reported as “delay biofilm formation”.

`CCn1cnc2c(N[C@@H]3C[C@H]3c3ccc(F)c(F)c3)nc(SC)nc21` [Molecule 2511, N-((1R,2S)-2-(3,4-difluorophenyl)cyclopropyl)-9-ethyl-2-(methylthio)-9H-purin-6-amine]: in experiment [1], the “biofilm formation (photon signal per second, radiance)” value was “inhibited biofilm growth”.

Take `C#CCn1cnc2c(N[C@@H]3C[C@H]3c3ccc(F)c(F)c3)nc(SCCC)nc21` [Molecule 2452, N-((1R,2S)-2-(3,4-difluorophenyl)cyclopropyl)-9-(prop-2-yn-1-yl)-2-(propylthio)-9H-purin-6-amine]: the figures for the MIC (in experiment [2]; in experiment [3]; in the experiment with S. aureus ATCC 25904) were above 50 µM, above 50 µM and 20 to 25 µM (≈ 7.99 to 9.99 µg/mL), respectively. Further, the “biofilm formation (photon signal per surface unit)” value in experiment [1] was “delay biofilm formation”.

With `CCCSc1nc(N[C@@H]2C[C@H]2c2ccc(F)c(F)c2)c2ncn(CC)c2n1` [Molecule 2348, N-((1R,2S)-2-(3,4-difluorophenyl)cyclopropyl)-9-ethyl-2-(propylthio)-9H-purin-6-amine], the MIC in experiment [2] is above 50 µM; in experiment [3] it was above 50 µM; with S. aureus ATCC 25904 it was 20 to 25 µM (≈ 7.79 to 9.74 µg/mL). For the same compound, the “biofilm formation (photon signal per surface unit)” value in experiment [1] is “fully prevented biofilm formation”.

With `CCCSc1nc(N[C@@H]2C[C@H]2c2ccc(F)c(F)c2)c2ncn(C)c2n1` [Molecule 2329, N-((1R,2S)-2-(3,4-difluorophenyl)cyclopropyl)-9-methyl-2-(propylthio)-9H-purin-6-amine], the minimal inhibitory concentration (MIC) is 25 to 30 µM (≈ 9.39 to 11.3 µg/mL) in experiment [2], 25 µM (≈ 9.39 µg/mL) in experiment [3] and 20 to 25 µM (≈ 7.51 to 9.39 µg/mL) with S. aureus ATCC 25904. Also, in experiment [1], the “biofilm formation (photon signal per surface unit)” value was “fully prevented biofilm formation”. Moreover, in the experiment with MRSA, the “MBC relative to MIC, MRSA” value was “around 2 times”. In the experiment with MRSA, this compound gave an MBC of 40 µM (≈ 15 µg/mL).

For orientation: MBC means the lowest tested concentration that kills the bacteria rather than only halting them. A lower MBC goes with greater bactericidal potency. The MIC is the least concentration at which growth counts as inhibited.

The record behind these values is patent US11434241B2, “Pyrimidine derivatives for prevention and treatment of bacterial infections” (UNIVERSITE DE LIEGE, priority 2018, dated 2022).
